# Key:
# Test in all cases: Test D controlled growth environment herbicide test, pre- and postemergence
# Assay type in all cases: in vivo
# kochia (Kochia scoparia) = test system: kochia (Kochia scoparia)
# In short: (§1)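 Rating is visual, 0–100 scale (100 = complete control), made against untreated plants 14–21 d after treatment in controlled growth conditions. Postemergence sprays went onto 1- to 4-leaf plants in peat medium; preemergence sprays onto silt loam after sowing; formulation included a surfactant.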
# [1] = test system: field poppy (Papaver rhoeas)
# In short: as §1
# [2] = test system: radish, wild (wild radish, Raphanus raphanistrum)
# In short: as §1
# [3] = test system: lambsquarters (Chenopodium album)
# In short: as §1
# [4] = test system: barley, winter (winter barley, Hordeum vulgare)
# In short: as §1
# [5] = test system: chamomile (scentless chamomile, Matricaria inodora)
# In short: as §1
# [6] = test system: bluegrass (annual bluegrass, Poa annua)
# In short: as §1
# [7] = test system: galium (catchweed bedstraw, Galium aparine)
# In short: as §1
# [8] = test system: windgrass (Apera spica-venti)
# In short: as §1
# [9] = test system: barley, spring (spring barley, Hordeum vulgare)
# In short: as §1
# [10] = test system: buckwheat, wild (wild buckwheat, Polygonum convolvulus)
# In short: as §1
# [11] = test system: field violet (Viola arvensis)
# In short: as §1
# [12] = test system: canarygrass (Phalaris minor)
# In short: as §1
# [13] = test system: pigweed (Amaranthus retroflexus)
# In short: as §1
# [14] = Postemergence, 31 g ai/ha, scale 0 to 100 (0 no effect, 100 complete control)
# [15] = Postemergence, 125 g ai/ha, visual rating on scale 0 (no effect) to 100 (complete control), 14 to 21 d
# [16] = Postemergence, 250 g ai/ha, scale 0 to 100 (0 no effect, 100 complete control)
# [17] = Preemergence, 62 g ai/ha, scale 0 to 100 (0 no effect, 100 complete control)
# [18] = Preemergence, 125 g ai/ha, scale 0 to 100 (0 no effect, 100 complete control)
# [19] = Preemergence, 250 g ai/ha, scale 0 to 100, 0 no effect, 100 complete control
# [20] = postemergence, 62 g ai/ha, scale 0 to 100, 0 no effect, 100 complete control
smiles,measurement,setting,value
Cc1nn(C)c(=O)c(-c2ccc(Br)c3ccccc23)c1O [Compound 75],Kochia plant response rating,kochia (Kochia scoparia); [14],95
same,"Plant response rating, Kochia",kochia (Kochia scoparia); [15],100
same,"Plant response rating, Kochia",kochia (Kochia scoparia); [16],100
same,"Plant response rating (scale of 0 to 100), Kochia","kochia (Kochia scoparia); Preemergence, 31 g ai/ha",65
same,"Plant response rating, Kochia",kochia (Kochia scoparia); [17],80
same,"Plant response rating, Kochia",kochia (Kochia scoparia); [18],80
same,"Plant response rating, Kochia",kochia (Kochia scoparia); [19],100
same,"Plant response rating, Kochia",kochia (Kochia scoparia); [20],100
same,Field Poppy plant response rating,[1]; [14],100
same,"Plant response rating, Field Poppy",[1]; [15],100
same,"Plant response rating, Field Poppy",[1]; [16],100
same,"Plant response rating (scale of 0 to 100), Field Poppy","[1]; Preemergence, 31 g ai/ha",0
same,"Plant response rating, Field Poppy",[1]; [17],95
same,"Plant response rating, Field Poppy",[1]; [18],100
same,"Plant response rating, Field Poppy",[1]; [19],100
same,"Plant response rating, Field Poppy",[1]; [20],100
same,"Radish, Wild plant response rating",[2]; [14],95
same,"Plant response rating, Radish, Wild",[2]; [15],100
same,"Plant response rating, Radish, Wild",[2]; [16],100
same,"Plant response rating (scale of 0 to 100), Radish, Wild","[2]; Preemergence, 31 g ai/ha",40
same,"Plant response rating, Radish, Wild",[2]; [17],70
same,"Plant response rating, Radish, Wild",[2]; [18],100
same,"Plant response rating, Radish, Wild",[2]; [19],100
same,"Plant response rating, Radish, Wild",[2]; [20],100
same,Lambsquarters plant response rating,[3]; [14],100
same,"Plant response rating, Lambsquarters",[3]; [15],100
same,"Plant response rating, Lambsquarters",[3]; [16],100
same,"Plant response rating (scale of 0 to 100), Lambsquarters","[3]; Preemergence, 31 g ai/ha",95
same,"Plant response rating, Lambsquarters",[3]; [17],95
same,"Plant response rating, Lambsquarters",[3]; [18],100
same,"Plant response rating, Lambsquarters",[3]; [19],100
same,"Plant response rating, Lambsquarters",[3]; [20],100
same,"Barley, Winter plant response rating",[4]; [14],0
same,"Plant response rating, Barley, Winter",[4]; [15],0
same,"Plant response rating, Barley, Winter",[4]; [16],5
same,"Plant response rating (scale of 0 to 100), Barley, Winter","[4]; Preemergence, 31 g ai/ha",0
same,"Plant response rating, Barley, Winter",[4]; [17],0
same,"Plant response rating, Barley, Winter",[4]; [18],0
same,"Plant response rating, Barley, Winter",[4]; [19],0
same,"Plant response rating, Barley, Winter",[4]; [20],0
same,Chamomile plant response rating,[5]; [14],80
same,"Plant response rating, Chamomile",[5]; [15],85
same,"Plant response rating, Chamomile",[5]; [16],100
same,"Plant response rating, Chamomile",[5]; [20],90
same,Bluegrass plant response rating,[6]; [14],10
same,"Plant response rating, Bluegrass",[6]; [15],15
same,"Plant response rating, Bluegrass",[6]; [16],15
same,"Plant response rating (scale of 0 to 100), Bluegrass","[6]; Preemergence, 31 g ai/ha",15
same,"Plant response rating, Bluegrass",[6]; [17],15
same,"Plant response rating, Bluegrass",[6]; [18],10
same,"Plant response rating, Bluegrass",[6]; [19],35
same,"Plant response rating, Bluegrass",[6]; [20],10
same,Galium plant response rating,[7]; [14],90
same,"Plant response rating, Galium",[7]; [15],95
same,"Plant response rating, Galium",[7]; [16],100
same,"Plant response rating (scale of 0 to 100), Galium","[7]; Preemergence, 31 g ai/ha",15
same,"Plant response rating, Galium",[7]; [17],50
same,"Plant response rating, Galium",[7]; [18],60
same,"Plant response rating, Galium",[7]; [19],80
same,"Plant response rating, Galium",[7]; [20],95
same,Windgrass plant response rating,[8]; [14],10
same,"Plant response rating, Windgrass",[8]; [15],40
same,"Plant response rating, Windgrass",[8]; [16],65
same,"Plant response rating (scale of 0 to 100), Windgrass","[8]; Preemergence, 31 g ai/ha",0
same,"Plant response rating, Windgrass",[8]; [17],15
same,"Plant response rating, Windgrass",[8]; [18],50
same,"Plant response rating, Windgrass",[8]; [19],85
same,"Plant response rating, Windgrass",[8]; [20],15
same,"Barley, Spring plant response rating",[9]; [14],0
same,"Plant response rating, Barley, Spring",[9]; [15],0
same,"Plant response rating, Barley, Spring",[9]; [16],0
same,"Plant response rating (scale of 0 to 100), Barley, Spring","[9]; Preemergence, 31 g ai/ha",0
same,"Plant response rating, Barley, Spring",[9]; [17],0
same,"Plant response rating, Barley, Spring",[9]; [18],0
same,"Plant response rating, Barley, Spring",[9]; [19],0
same,"Plant response rating, Barley, Spring",[9]; [20],0
same,"Buckwheat, Wild plant response rating",[10]; [14],100
same,"Plant response rating, Buckwheat, Wild",[10]; [15],100
same,"Plant response rating, Buckwheat, Wild",[10]; [16],100
same,"Plant response rating (scale of 0 to 100), Buckwheat, Wild","[10]; Preemergence, 31 g ai/ha",0
same,"Plant response rating, Buckwheat, Wild",[10]; [17],0
same,"Plant response rating, Buckwheat, Wild",[10]; [18],0
same,"Plant response rating, Buckwheat, Wild",[10]; [19],50
same,"Plant response rating, Buckwheat, Wild",[10]; [20],100
same,Field Violet plant response rating,[11]; [14],95
same,"Plant response rating, Field Violet",[11]; [15],95
same,"Plant response rating, Field Violet",[11]; [16],100
same,"Plant response rating (scale of 0 to 100), Field Violet","[11]; Preemergence, 31 g ai/ha",95
same,"Plant response rating, Field Violet",[11]; [17],100
same,"Plant response rating, Field Violet",[11]; [18],100
same,"Plant response rating, Field Violet",[11]; [19],100
same,"Plant response rating, Field Violet",[11]; [20],100
same,Canarygrass plant response rating,[12]; [14],15
same,"Plant response rating, Canarygrass",[12]; [15],30
same,"Plant response rating, Canarygrass",[12]; [16],50
same,"Plant response rating (scale of 0 to 100), Canarygrass","[12]; Preemergence, 31 g ai/ha",20
same,"Plant response rating, Canarygrass",[12]; [17],55
same,"Plant response rating, Canarygrass",[12]; [18],70
same,"Plant response rating, Canarygrass",[12]; [19],75
same,"Plant response rating, Canarygrass",[12]; [20],15
same,Pigweed plant response rating,[13]; [14],100
same,"Plant response rating, Pigweed",[13]; [15],100
same,"Plant response rating, Pigweed",[13]; [16],100
same,"Plant response rating (scale of 0 to 100), Pigweed","[13]; Preemergence, 31 g ai/ha",85
same,"Plant response rating, Pigweed",[13]; [17],100
same,"Plant response rating, Pigweed",[13]; [18],100
same,"Plant response rating, Pigweed",[13]; [19],100
same,"Plant response rating, Pigweed",[13]; [20],100
